Experimental data: ChEMBL document CHEMBL4627313, “Discovery of sulfonamides and 9-oxo-2,8-diazaspiro[5,5]undecane-2-carboxamides as human kynurenine aminotransferase 2 (KAT2) inhibitors” (Bioorg Med Chem Lett, 2020)

Target: T1, Kynurenine/alpha-aminoadipate aminotransferase, mitochondrial (Homo sapiens, UniProt Q8N5Z0)
Test: Reversible inhibition of recombinant human KAT2 assessed as reduction in kynurenic acid formation using L-kynurenine as substrate by fluorescence assay
Target sequence in this assay (Q8N5Z0 whole entry): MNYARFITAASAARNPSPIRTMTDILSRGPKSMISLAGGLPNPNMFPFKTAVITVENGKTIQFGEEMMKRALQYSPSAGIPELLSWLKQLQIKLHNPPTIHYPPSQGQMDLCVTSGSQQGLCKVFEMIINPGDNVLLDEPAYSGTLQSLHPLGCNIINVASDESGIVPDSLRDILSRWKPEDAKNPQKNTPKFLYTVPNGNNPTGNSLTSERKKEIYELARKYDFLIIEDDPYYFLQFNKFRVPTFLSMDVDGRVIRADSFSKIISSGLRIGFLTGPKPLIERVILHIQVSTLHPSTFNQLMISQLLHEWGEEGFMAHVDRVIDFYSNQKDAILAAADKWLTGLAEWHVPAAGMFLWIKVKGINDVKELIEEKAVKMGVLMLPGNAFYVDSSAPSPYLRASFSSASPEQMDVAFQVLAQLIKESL

IC50 [µM]	SMILES
16	O=S(=O)(Nc1nnc(C2(c3ccccc3)CC2)s1)c1cc(F)cc(F)c1
1.6	CC(C)C(Cc1nnc(NS(=O)(=O)c2cc(F)cc(F)c2)s1)c1cccc(F)c1 (stereo unspecified)
8	CCc1cccc(NC(=O)N2CCCC3(CCC(=O)N(CCC(C)C)C3)C2)c1 (racemic)
0.81	Cc1ccc(NC(=O)N2CCCC3(CCC(=O)N(CCC(C)C)C3)C2)cc1Cl (racemic)
4.4	CCc1cccc(NC(=O)N2CCCC3(CCC(=O)N(CCC(C)C)C3)C2)c1 (stereo in doubt; 7 E1)
97	CCc1cccc(NC(=O)N2CCCC3(CCC(=O)N(CCC(C)C)C3)C2)c1 (stereo in doubt; 7 E2)
4.5	Cc1cc(C)cc(NC(=O)N2CCCC3(CCC(=O)N(C4CC4)C3)C2)c1 (stereo in doubt; 9 E1)
74.9	Cc1cc(C)cc(NC(=O)N2CCCC3(CCC(=O)N(C4CC4)C3)C2)c1 (stereo in doubt; 9 E2)
2.4	O=C1CCC2(CCCN(C(=O)Nc3ccc(F)c(Cl)c3)C2)CN1CC1CC1 (stereo in doubt; 10 E1)
96.5	O=C1CCC2(CCCN(C(=O)Nc3ccc(F)c(Cl)c3)C2)CN1CC1CC1 (stereo in doubt; 10 E2)
> 100	COc1ccc(NC(=O)N2CCCC3(CCC(=O)N(C4CC4)C3)C2)cc1 (stereo in doubt; 11 E1)
15.5	COc1ccc(NC(=O)N2CCCC3(CCC(=O)N(C4CC4)C3)C2)cc1 (stereo in doubt; 11 E2)

Target: T1, Kynurenine/alpha-aminoadipate aminotransferase, mitochondrial
Test: Reversible inhibition of recombinant human KAT2 assessed as reduction in kynurenic acid formation at 50 uM using L-kynurenine as substrate by fluorescence assay relative to control
Target sequence in this assay (Q8N5Z0 30-425 limits assumed): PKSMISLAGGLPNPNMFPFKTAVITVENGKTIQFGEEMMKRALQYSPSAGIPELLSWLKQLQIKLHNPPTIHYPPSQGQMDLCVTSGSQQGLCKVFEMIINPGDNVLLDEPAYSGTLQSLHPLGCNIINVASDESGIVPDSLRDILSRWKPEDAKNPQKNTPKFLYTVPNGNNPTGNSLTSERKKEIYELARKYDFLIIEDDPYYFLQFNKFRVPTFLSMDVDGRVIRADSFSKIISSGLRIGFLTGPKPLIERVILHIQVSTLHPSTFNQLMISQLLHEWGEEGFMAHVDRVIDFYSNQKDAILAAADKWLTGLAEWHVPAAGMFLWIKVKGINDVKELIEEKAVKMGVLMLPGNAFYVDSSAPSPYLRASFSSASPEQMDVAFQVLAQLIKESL

inhibition [%]	SMILES
88	O=S(=O)(Nc1nnc(C2(c3ccccc3)CC2)s1)c1cc(F)cc(F)c1
57	O=S(=O)(NC1CCNC1)c1ccc(Cl)cc1C(F)(F)F (stereo unspecified)
47	O=S(=O)(Nc1nnc(CC2CCCC2)o1)c1ccccc1

Target: T1, Kynurenine/alpha-aminoadipate aminotransferase, mitochondrial
Test: Binding affinity to recombinant human KAT2 assessed as change in temperature by thermal shift assay
Target sequence in this assay (Q8N5Z0 30-425 limits assumed): as above

deltaT [°C]	SMILES
1.7	O=S(=O)(Nc1nnc(C2(c3ccccc3)CC2)s1)c1cc(F)cc(F)c1
